This note sets out measurements from PMC3914206.

The target of assay [1] is T1, panel of 442 kinases (Homo sapiens, UniProt Q96Q40).
T1 construct: purchased KINOMEscan
Type of assay: binding. To be noted: Compound Concentration 10 µM. An excerpt: (§1) We assessed the selectivity of members of this scaffold using the KINOMEscan methodology across a near comprehensive panel of 442 kinases [[18,27]].

Assay [2] concerns the target T2, panel of 442 kinases (Homo sapiens, UniProt P29323).
T2 construct: purchased KINOMEscan
T2 sequence (P29323 19-1055): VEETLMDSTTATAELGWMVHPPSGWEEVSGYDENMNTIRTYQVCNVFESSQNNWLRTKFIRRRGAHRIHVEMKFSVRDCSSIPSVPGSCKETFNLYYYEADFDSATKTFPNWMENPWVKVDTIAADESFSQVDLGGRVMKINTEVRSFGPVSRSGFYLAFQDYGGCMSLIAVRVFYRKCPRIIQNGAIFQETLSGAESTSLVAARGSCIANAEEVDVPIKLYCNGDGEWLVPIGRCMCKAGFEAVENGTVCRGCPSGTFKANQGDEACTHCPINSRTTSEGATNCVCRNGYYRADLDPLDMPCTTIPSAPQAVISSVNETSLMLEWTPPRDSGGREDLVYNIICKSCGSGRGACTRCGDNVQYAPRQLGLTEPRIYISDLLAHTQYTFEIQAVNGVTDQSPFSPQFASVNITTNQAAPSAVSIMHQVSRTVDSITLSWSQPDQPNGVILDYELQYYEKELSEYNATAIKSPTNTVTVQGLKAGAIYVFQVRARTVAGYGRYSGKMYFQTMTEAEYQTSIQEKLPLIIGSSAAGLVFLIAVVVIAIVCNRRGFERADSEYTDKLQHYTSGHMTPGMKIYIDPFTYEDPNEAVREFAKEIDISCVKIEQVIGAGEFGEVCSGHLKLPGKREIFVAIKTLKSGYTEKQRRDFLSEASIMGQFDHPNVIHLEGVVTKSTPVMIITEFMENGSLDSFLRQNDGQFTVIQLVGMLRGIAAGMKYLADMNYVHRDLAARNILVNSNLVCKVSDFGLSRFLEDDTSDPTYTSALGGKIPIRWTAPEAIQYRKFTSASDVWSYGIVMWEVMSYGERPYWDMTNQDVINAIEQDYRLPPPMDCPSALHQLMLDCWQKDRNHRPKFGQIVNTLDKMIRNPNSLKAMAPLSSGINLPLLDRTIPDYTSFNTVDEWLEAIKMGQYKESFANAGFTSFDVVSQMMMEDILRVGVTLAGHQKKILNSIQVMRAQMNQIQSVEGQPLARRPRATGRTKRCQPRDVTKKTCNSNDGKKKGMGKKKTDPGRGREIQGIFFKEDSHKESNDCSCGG
Type of assay: binding. To be noted: Compound Concentration 10 µM.
Excerpt: as §1

T1 sequence (Q96Q40 whole entry): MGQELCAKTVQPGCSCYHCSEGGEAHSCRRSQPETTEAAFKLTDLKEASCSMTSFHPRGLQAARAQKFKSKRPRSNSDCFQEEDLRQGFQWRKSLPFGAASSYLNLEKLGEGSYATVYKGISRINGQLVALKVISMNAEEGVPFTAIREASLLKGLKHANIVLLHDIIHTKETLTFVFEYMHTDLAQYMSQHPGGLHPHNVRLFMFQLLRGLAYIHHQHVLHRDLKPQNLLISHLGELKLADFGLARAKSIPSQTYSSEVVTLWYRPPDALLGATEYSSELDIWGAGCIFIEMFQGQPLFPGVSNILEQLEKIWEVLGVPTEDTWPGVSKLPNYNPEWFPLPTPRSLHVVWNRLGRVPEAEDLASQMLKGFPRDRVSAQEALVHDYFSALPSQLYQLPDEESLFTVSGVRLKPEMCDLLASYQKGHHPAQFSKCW

Take `COc1cc(C(=O)N2CCC(N3CCN(C)CC3)CC2)ccc1Nc1ncc2c(n1)N(C1CCCC1)c1ccccc1C(=O)N2C` [Compound 25, 11-cyclopentyl-2-((2-methoxy-4-(4-(4-methylpiperazin-1-yl)piperidine-1-carbonyl)phenyl)amino)-5-methyl-5H-benzo[e]pyrimido[5,4-b][1,4]diazepin-6(11H)-one]: in assay [1], the “KINOMEscan: PFTAIRE2” value is reported as 99. The “KINOMEscan: EPHB2” value in assay [2] stood at 86.

Consider `COc1cc(C(=O)N2CCC(N3CCN(C)CC3)CC2)ccc1Nc1ncc2c(n1)N(C)c1ccccc1C(=O)N2C` [15 (LRRK2-IN-1)], for which the “KINOMEscan: PFTAIRE2” value in assay [1] came out at 100. Further, in assay [2], the “KINOMEscan: EPHB2” value is 100.

For the compound `CCOc1cc(C(=O)N2CCC(N3CCN(C)CC3)CC2)ccc1Nc1ncc2c(n1)N(C1CCCC1)c1ccccc1C(=O)N2C` [Compound 26], in assay [1], the “KINOMEscan: PFTAIRE2” value is recorded as 100. For the same compound, the “KINOMEscan: EPHB2” value in assay [2] amounted to 100.
